Entries after “also recorded” stand apart in the source; their conditions may differ.
Assays:
[1] = tested on: calcium-induced arrhythmias in rats; assay: Calcium-induced arrhythmias (CaCl2 injected i.v. into anesthetized rats)
Source text: The experimental method used was that described in Lynch J. J., Rahwan R. G., Witiak D. T.: Effects of 2-substituted-3-dimethylamino-5,6-methylenedioxyindenes on calcium-inducedarrhythmias, J. Cardiovasc. Pharmacol. 3: 49-60 (1981). Male Sprague-Dawley rats weighing 180-250 grams were anesthetized with sodium pentobarbital and a cannula was inserted into the left jugular vein for drug administration. Electrocardiograph equipment was connected to the rat and the lead II was continuously monitored. The compound under test, dissolved in 5% dextrose solution, was administered into the jugular vein of anesthetized rats over a 40 second period. Ten minutes after this treatment, an acute dose of 1 ml/kg of a 10% CaCl2.2H2 O solution was injected into the jugular vein over a period of 10 seconds. The arrhythmias resulting from the calcium administration were graded according to the following criteria: (a) initial change in heart rate following calcium administration; (b) incidences of sinoatrial block, atrioventricular block, ectopic beats, and ventricular flutter and fibrillation; (c) time required for reversion to control ECG; and (d) incidence of mortality.

[2] = tested on: spontaneously beating right atria; assay: Effects on isolated guinea pig atria: spontaneously beating right atria; type: cell-based
Source text: The effects of pr-MDI, bu-MDI and Q-bu-MDI on the mechanical and electrical behavior of isolated guinea pig atria were investigated by the method of H. Nawrath, J. Pharmacol. Exp. Ther., 16, 176-182 (1980). The compounds were investigated over the concentration range of 10^-8 to 3×10^-4 M.
English short-haired guinea pigs, supplied by Carr Animal Supply, of Powell, Ohio, weighing 300-600 g. were killed by a blow on the head and both atria of the animal were quickly dissected out and suspended in a water-jacketed organ bath containing Krebs-Henseleit solution through which a 95% oxygen/5% carbon dioxide mixture was bubbled at 32° C. The solution contained 6.92 g/l of sodium chloride, 0.35 g/l of potassium chloride, 0.29 g/l of magnesium […] heptahydrate, 0.3 g/l of calcium chloride dihydrate, 0.16 g/l of potassium dihydrogen phosphate, 2.1 g/l of sodium bicarbonate and 2.1 g/l of dextrose. The contractile force generated by the isolated artria was recorded isometrically under a 500 mg. preload using a Narco Biosystems force transducer connected to a physiograph DMP-4B recorder, both the transducer and the recorder being obtained from E & M Instrument Co. of Houston, Texas.
Spontaneously beating right atria were tested in a similar manner.

CCCCC1=Cc2cc3c(cc2C1[N+](C)(C)C)OCO3.[I-] (centres unmarked) [Q-bu-MDI, 2-Butyl-5,6-methylenedioxyindene-1-trimethylammonium iodide]
mortality rate ([1]; 0.5 mg/kg, i.v.): zero
protection against arrhythmia ([1]; 0.5 mg/kg, i.v.): almost complete protection
protection against calcium-induced mortality ([1]; 0.5 mg/kg, i.v.): complete protection against calcium-induced mortality
protection against the calcium-induced bradycardia ([1]; 0.5 mg/kg, i.v.): partial protection
time for reversion to a normal electrocardiogram ([1]; 0.5 mg/kg, i.v.): significantly reduced
effectiveness in suppressing arrhythmias relative to pr-MDI and bu-MDI ([1]; calcium-induced arrhythmias): 7-8 times
concentration effective against calcium-induced arrhythmias ([1]; i.v., 10 min before CaCl2): 0.5 mg/kg
deleterious side effects ([1]; i.v., Q-bu-MDI at 0.5 mg/kg, pr-MDI and bu-MDI at 3.75 mg/kg): no substantial deleterious side effects
effect on the contractile force of right atria at the highest concentration ([2]; 3×10^-4 M): positive inotropy
effect on spontaneous atrial rate ([2]; 10^-8 to 3×10^-4 M): only a slight decrease in the spontaneous atrial rate; also recorded: much less than the other two compounds
effect on the contractile force of right atria ([2]; except at 3×10^-4 M for Q-bu-MDI): minimal effects on the contractile force of right atria
